PMC5978685, “Design, Synthesis, and Evaluation of Novel Immunomodulatory Small Molecules Targeting the CD40–CD154 Costimulatory Protein-Protein Interaction” (Molecules : A Journal of Synthetic Chemistry and Natural …, 2018)

Columns and labels:
CD40–CD154 (CD40L) = target: T1, CD40–CD154 (CD40L) (Homo sapiens, UniProt P29965); experiment: cell-free ELISA-type binding inhibition assay, CD40–CD154; details: cell-free CD40–CD154 binding inhibition; read-out: CD40 IC50
T1 construct: purchased Enzo Life Sciences
T1 sequence (P29965 116-261 limits assumed): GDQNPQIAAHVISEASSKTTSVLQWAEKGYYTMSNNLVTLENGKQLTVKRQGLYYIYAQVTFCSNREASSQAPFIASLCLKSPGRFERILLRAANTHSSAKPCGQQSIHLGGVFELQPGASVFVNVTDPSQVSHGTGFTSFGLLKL
Source text: As a first assessment, the CD40–CD154 inhibitory activity of compounds 6–19 (Figure 2, Table 1) was quantified using a cell-free in vitro binding inhibition assay as described before. Data fitted with typical sigmoidal concentration dependence curves (log inhibitor versus response model in GraphPad Prism, Hill slope n = 1) are summarized in Figure 3A. […] Polymolecular conglomeration and/or aggregation is often a cause of promiscuous inhibition in screening assays. Therefore, just as in our previous work, we checked for this, and we confirmed for several compounds that inhibition due to aggregation is not the case by retesting inhibitory activity in the presence of a non-ionic detergent (Triton-X 100, 0.01%) as recommended for the detection of such effects.
(§1) Binding inhibition assays were performed in a 96-well cell-free format as described before. Briefly, microtiter plates (Nunc F Maxisorp, 96-well; Thermo Fisher Scientific, Waltham, MA, USA) were coated overnight at 4 °C with 100 μL/well of Fc-conjugated receptors diluted in PBS pH 7.2. This was followed by blocking with 200 μL/well of blocking solution (PBS pH 7.2, 0.05% Tween-20, 1% BSA) for 1 h at RT. Then, plates were washed twice using washing solution (PBS pH 7.4, 0.05% Tween-20) and tapped dry before the addition of the appropriate FLAG tagged ligands along with different concentrations of tested dyes diluted in binding buffer (100 mM HEPES, 0.005% BSA pH 7.2) to give a total volume of 100 μL/well. After 1 h incubation, three washes were conducted, and anti-FLAG HRP conjugate was used to detect the bound FLAG-tagged ligand. Plates were washed four times before the addition of 120 μL/well of HRP substrate TMB (3,3′,5,5′-tetramethylbenzidine) and kept in the dark for up to 15 min. The reaction was stopped using 30 μL of 1M H2SO4, and the absorbance value was read at 450 nm. The concentrations of receptors used were 0.3 μg/mL for CD40, TNF-R1, and BAFFR; 0.6 μg/mL for OX40. The concentrations of the ligands were fixed at 0.02 μg/mL for CD154 and TNF-α, 0.06 μg/mL for OX40L, and 0.03 μg/mL for BAFF. These values were selected following preliminary testing to optimize response (i.e., to produce a high-enough signal at conditions close to half-maximal response, EC50). […] To verify that inhibition is not due to colloidal aggregation, CD40 binding inhibition was also measured in the presence of the non-ionic detergent Triton-X 100 (0.01%), as recommended for the detection of such effects.
(§2) All binding inhibition and cell assays were tested in duplicate or triplicate per plates, and assays were performed as at least three independent experiments. As before, binding and cytotoxicity data were converted to percent inhibition and fitted with standard log inhibitor vs. normalized response models using nonlinear regression in GraphPad Prism (GraphPad, La Jolla, CA, USA) to establish half-maximal (median) inhibitory concentration (IC50) or median lethal concentration (LC50) values. Cell assay data were fitted with a similar model that also allowed for a variable slope using the log inhibitor vs. normalized response (variable slope) model from Prism with a Hill slope (n) shared across all compounds. Cell assays and draining lymph node data were analyzed by one-way repeated-measures analysis of variance (ANOVA) followed by Dunnett’s multiple comparison test as a post hoc test for individual differences using GraphPad Prism and a significance level of p < 0.05 for all comparisons.
(§3) Data are (counterclockwise) for human CD40–CD154 (CD40L) (A); OX40–OX40L (B); BAFFR–BAFF (C); and TNF-R1–TNFα (D) and were fitted with standard binding curves. Data are average ± SD (normalized to percent binding) for n = 3 independent experiments with duplicates for each condition.

OX40–OX40L = target: T2, OX40–OX40L (Homo sapiens, UniProt P23510); experiment: cell-free ELISA-type binding inhibition assay, OX40–OX40L
T2 construct: purchased Enzo Life Sciences
T2 sequence (P23510 51-183 limits assumed): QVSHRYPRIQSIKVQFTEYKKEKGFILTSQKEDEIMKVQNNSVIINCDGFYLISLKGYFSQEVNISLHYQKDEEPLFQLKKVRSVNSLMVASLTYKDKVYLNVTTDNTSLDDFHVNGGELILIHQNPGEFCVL
Experimental: (§4) In parallel with the CD40–CD154 assay, the ability of these compounds to inhibit other TNFSFR–TNFSF PPIs, including OX40–OX40L, BAFFR–BAFF, and TNF-R1–TNF-α, was also assessed (Figure 3B–D).
as §1, §2, §3

BAFFR–BAFF = target: T3, BAFFR–BAFF (Homo sapiens, UniProt Q9Y275); experiment: cell-free ELISA-type binding inhibition assay, BAFFR–BAFF
T3 construct: purchased Enzo Life Sciences
Experimental: as §4, §1, §2, §3

TNF-R1–TNFα = target: T4, TNF-R1–TNFα (Homo sapiens, UniProt P01375); experiment: cell-free ELISA-type binding inhibition assay, TNF-R1–TNFα; details: cell-free TNF-R1–TNFα binding inhibition; read-out: TNF IC50
T4 construct: purchased Enzo Life Sciences
T4 sequence (P01375 85-233 limits assumed): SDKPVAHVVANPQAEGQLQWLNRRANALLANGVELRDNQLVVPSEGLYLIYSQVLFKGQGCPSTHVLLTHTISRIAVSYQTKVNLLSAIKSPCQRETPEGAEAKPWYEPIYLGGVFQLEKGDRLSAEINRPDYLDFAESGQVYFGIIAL
Experimental: as §4, §1, §2, §3

[1] = system: alloantigen-induced T cell response in draining popliteal lymph node; experiment: alloantigen-induced T cell expansion in draining lymph node; type: in vivo, mouse (Balb/c); details: Balb/c mice, DBA-2 splenocytes in footpad; 10–20 mg/kg s.c. b.i.d.; p < 0.0001 vs vehicle
Experimental: The most promising compounds of the present series were evaluated for in vivo activity using the same model of alloantigen-induced T cell expansion in the draining lymph nodes (DLNs) that was described before. This procedure involved injection of splenocytes isolated from DBA-2 mice into the footpad of Balb/c recipients. Within three full days, this causes a significant increase in the number of cells in the draining popliteal lymph node, and this is inhibited by compounds with immunosuppressive activity.
The ability to inhibit alloantigen-induced T cell response in a draining lymph node was tested as described before. In brief, BALB/c mice (10–12 weeks old, female) received a footpad injection of 1 × 10^7 splenocytes isolated from DBA-2 mice (10–12 weeks old, male). CD154 antibody (MR-1; 20 mg/kg, day −1 and 0) or test compounds (20–60 mg/kg; b.i.d. from day −1 to 3, in 20% HPβCD) were administered s.c., and the draining popliteal lymph nodes (DLNs) were collected 3 days after the alloantigen challenge. DLN cells were counted and data are shown as mean ± SD (n = 3–4 per group).
as §2
Figure 6 Inhibition of alloantigen-induced T cell response in a draining lymph node by compounds 6, 15, 18, and 19. Mice (Balb/c) received a footpad injection of allogeneic splenocytes (isolated from DBA-2 mice) and were treated with anti-CD154 antibody (MR-1; 20 mg/kg, day −1 and 0) or compounds as shown (10–40 mg/kg, b.i.d. from day −1 to 3, s.c. in 20% HPβCD). Draining (popliteal) lymph nodes were collected three days after the alloantigen challenge and cells were counted. Data are shown as mean ± SD. Significant differences compared to vehicle-treated controls are indicated by asterisks (**** p < 0.0001; one-way ANOVA followed by Dunnett’s multiple comparison test).

| Structure (SMILES) | IC50 (CD40–CD154 (CD40L)) [µM] | IC50 (OX40–OX40L) [µM] | IC50 (BAFFR–BAFF) [µM] | IC50 (TNF-R1–TNFα) [µM] | inhibition of alloantigen-induced T cell expansion in draining lymph node [1] |
| --- | --- | --- | --- | --- | --- |
| O=C(Nc1ccc(-c2ccc(C(=O)Nc3ccc(S(=O)(=O)O)c4cccc(S(=O)(=O)O)c34)cc2)cc1)c1ccc([N+](=O)[O-])cc1 [Compound 10, 4-(4′-(4-Nitrobenzamido)-[1,1′-biphenyl]-4-carboxamido)naphthalene-1,5-disulfonic acid] | 68.3 | 135 | 440 | 688 | – |
| O=C(Nc1ccc(-c2ccc(C(=O)Nc3cccc4c(S(=O)(=O)O)cccc34)cc2)cc1)c1ccc([N+](=O)[O-])cc1 [Compound 7, 5-(4′-(4-Nitrobenzamido)-[1,1′-biphenyl]-4-carboxamido)naphthalene-1-sulfonic acid] | 0.299 | 9.34 | 2.01 | 555 | – |
| COC(=O)c1cccc2c(NC(=O)c3ccc(-c4ccc(NC(=O)c5ccc([N+](=O)[O-])cc5)cc4)cc3)cccc12 [Compound 9, Methyl 5-(4′-(4-nitrobenzamido)-[1,1′-biphenyl]-4-carboxamido)-1-naphthoate] | 56 | > 1000 | 686 | 796 | – |
| O=C(Nc1ccc(-c2ccc(C(=O)Nc3cccc4cccc(S(=O)(=O)O)c34)cc2)cc1)c1ccc(C(F)(F)F)cc1 [Compound 8, 8-(4′-(4-(trifluoromethyl)benzamido)biphenyl-4-ylcarboxamido)naphthalene-1-sulfonic acid] | 57.8 | 10.1 | 42.2 | 61.1 | – |
| COC(=O)c1ccc(C(=O)Nc2ccc(-c3ccc(C(=O)Nc4cccc5cccc(S(=O)(=O)O)c45)cc3)cc2)cc1[N+](=O)[O-] [Compound 13, 8-(4′-(4-(Methoxycarbonyl)-3-nitrobenzamido)biphenyl-4-ylcarboxamido)naphthalene-1-sulfonic acid] | 0.39 | 86.2 | 5.27 | 674 | – |

Now from value to compound, other results behind:

| IC50 (CD40–CD154 (CD40L)) [µM] | IC50 (OX40–OX40L) [µM] | IC50 (BAFFR–BAFF) [µM] | IC50 (TNF-R1–TNFα) [µM] | Structure (SMILES) | inhibition of alloantigen-induced T cell expansion in draining lymph node [1] |
| --- | --- | --- | --- | --- | --- |
| 2.41 | 6.97 | 13.8 | 182 | COC(=O)c1ccc(C(=O)Nc2ccc(-c3ccc(C(=O)Nc4cccc5cccc(S(=O)(=O)O)c45)cc3)nc2)cc1 [Compound 19, 8-(4-(5-(4-(Methoxycarbonyl)benzamido)pyridin-2-yl)benzamido)naphthalene-1-sulfonic acid] | inhibited the alloantigen-induced T cell response in this model in statistically significant manner |
| 50.5 | 10.3 | 38.1 | 61.7 | O=C(Nc1cccc2cccc(S(=O)(=O)O)c12)c1ccc(-c2ccc(NC(=O)c3ccc([N+](=O)[O-])cc3[N+](=O)[O-])cc2)cc1 [Compound 12, 8-(4′-(2,4-Dinitrobenzamido)-[1,1′-biphenyl]-4-carboxamido)naphthalene-1-sulfonic acid] | – |
| 44.8 | 7.28 | 26.7 | 61.5 | Cc1cc(NC(=O)c2ccc([N+](=O)[O-])cc2)ccc1-c1ccc(C(=O)Nc2cccc3cccc(S(=O)(=O)O)c23)cc1C [Compound 16, 8-(2,2′-Dimethyl-4′-(4-nitrobenzamido)-[1,1′-biphenyl]-4-carboxamido)naphthalene-1-sulfonic acid] | – |
| 57.5 | 36.6 | 81.4 | 118 | O=C(Nc1ccc2cc(C(=O)Nc3cccc4cccc(S(=O)(=O)O)c34)ccc2c1)c1ccc([N+](=O)[O-])cc1 [Compound 17, 8-(6-(4-Nitrobenzamido)-2-naphthamido)naphthalene-1-sulfonic acid] | – |
